Assay results taken from US20260094269A1, “DIAGNOSIS AND MONITORING OF NEURODEGENERATIVE DISEASES” (MACQUARIE UNIVERSITY, priority 2019, published 2026).

Tested on: monocytes
Experiment: Hyperspectral autofluorescence imaging of monocytes isolated from treated ALS / motor neuron disease patients (LDA projection, response score)
Assay type: in vivo, human
Text: In the particular implementation presented here the “response vectors” were obtained using the following procedure. First, a discriminatory model was developed using a subset of the data based on two groups, the first group comprising the controls C1 C4 and two sets of patient data P2 and P6, while the second group comprising P1, P3, and P4. Second, all data from FIG. 4 was projected on the direction joining the centres of the two cell data clusters for the two groups defined above and a one-dimensional response vector was determined by a projection of each original cell vector from FIG. 4. These one-dimensional response vectors for all cells were presented in a box plot format (each symbol indicates a response vector for a different cell).
The box plots in FIGS. 5 and 6 comprise rectangles with three shades of grey. The thin line in the centre of the rectangle has the darkest shade of grey and represents the median value; the two stripes immediately adjacent to the centre line have the lightest shade of grey and represent the 95% confidence region (1.96×SEM); and the two stripes nearest to the ends of the rectangle have an intermediate shade of grey and represent the first standard deviation. If the light-grey regions of a cluster are not horizontally overlapping, one can be confident of having measured a difference. The values in the plot were shifted by a value of 1.3358, just for sake of placing the controls about zero, although this is an arbitrary shift and, in other examples, the values may be shifted by other amounts. Clusters may be classified according to their mean values: high values may be attributed to “diseased and unresponsive” state, intermediate values may be attributed to “normal”, and low values compared to normal may be interpreted as “drug affected”.
Blood samples were collected using Vacutainer® CPT™ Cell Preparation Tube (BD Australia, catalogue: 362760). 4 mls of whole blood from controls and MND patients were collected into the CPT tube via veinpuncture technique, using the standard technique for BD Vacutainer® Evacuated blood collection tubes. After collection, the tube/blood samples were centrifuged at room temperature (18-25° C.) in a horizontal rotor centrifuge for a minimum of 20 minutes at 1500 to 1800 RCF. After centrifugation, mononuclear cells and platelets located in a whitish layer (Buffy layer just under the plasma layer) were collected using a Pasteur pipette and transferred to a 15 mL size conical centrifuge tube.
Monocytes were isolated from collected buffy layer using a Pan Monocyte Isolation Kit, human (Miltenyi Biotec, catalogue: 130-096-537). The Monocyte Isolation Kit is an indirect magnetic labelling system for the isolation of untouched monocytes from human peripheral blood mononuclear cells (PBMCs). Non-monocytes, i.e. T cells, NK cells, B cells, dendritic cells and basophils, are indirectly magnetically labeled using a cocktail of biotin-conjugated antibodies against CD3, CD7, […], CD19, CD56, CD123 and Glycophorin A, and Anti-Biotin MicroBeads. Isolation of highly pure unlabelled monocytes is achieved by depletion of the magnetically labeled cells. […]

Compound	clustering of monocytes (autofluorescence spectral space) relative to healthy control (ALS Patient 1, before (T0) vs three weeks after (T1) start of treatment, FIG. 5(a))	response score (one-dimensional projection), longitudinal testing (ALS Patients 1 and 2, T0 vs T1-T3 over the course of treatment, FIG. 5(c))	position of treated patients' cell data in LDA projection (control space vs patient space) (FIG. 4, all patients and controls C1-C4)	position of patient cell data in LDA projection over consecutive tests (FIG. 4, patient (P5), Test1 to Test4)	range of response scores compared with healthy controls (eight other ALS patients (Patients 3-10), FIG. 6)
CN=C([S-])N/N=C(C)/C(C)=N/NC([S-])=NC.[Cu+2] [CuATSM, Copper ATSM]	normalised towards the healthy cells	statistically strong drug responses from time T1 onwards	appear in the control space or to the left hand side	progressively moving left (and less component 2) into the control/treated space	–
Nc1nc2ccc(OC(F)(F)F)cc2s1 [Riluzole]	–	–	–	–	much wider range of response scores than healthy controls
